For one experiment, the target named is rnADAMTS-5 (1-564-6H) (Rattus norvegicus, UniProt Q6TY19). As to conditions: read-out: Rat ADAMTS-5 potency IC50.
Experiment [1] addresses T1, human ADAMTS-5 (Homo sapiens (Human), UniProt Q9UNA0). Conditions: read-out: hADAMTS-5 potency IC50.
Experiment [2] addresses T2, human TACE (Homo sapiens (Human), UniProt P78536). Conditions: read-out: TACE potency IC50.
Experiment [3] deals with T3, human MMP13 (Homo sapiens (Human), UniProt P45452). Conditions: read-out: hMMP-13 potency IC50.
Protocol: The reaction is initiated by adding to the assay plate 520 MMP-fret substrate XV (10 μL, 4 μM) in the same buffer.
In experiment [4] the target is T1, human ADAMTS-5. Put plainly: biochemical.
Protocol: Finally, the fluorescence is read on the Envision (Perkin Elmer) after an incubation of 90 min at 37° C.
For experiment [5], the target named is T2, human TACE. Put plainly: biochemical.
Experiment [6] addresses T3, human MMP13. Put plainly: biochemical.
Protocol: Human MMP13 is preactivated by incubated the enzyme in the same buffer complemented with 1 mM freshly prepared p-Aminophenylmercuric acetate (AMPA) for 1 hour at 37° C.

pIC50: −log10 of the molar value. Where two headings read alike, the source gives them in different places.

T1 sequence (Q9UNA0 262-930): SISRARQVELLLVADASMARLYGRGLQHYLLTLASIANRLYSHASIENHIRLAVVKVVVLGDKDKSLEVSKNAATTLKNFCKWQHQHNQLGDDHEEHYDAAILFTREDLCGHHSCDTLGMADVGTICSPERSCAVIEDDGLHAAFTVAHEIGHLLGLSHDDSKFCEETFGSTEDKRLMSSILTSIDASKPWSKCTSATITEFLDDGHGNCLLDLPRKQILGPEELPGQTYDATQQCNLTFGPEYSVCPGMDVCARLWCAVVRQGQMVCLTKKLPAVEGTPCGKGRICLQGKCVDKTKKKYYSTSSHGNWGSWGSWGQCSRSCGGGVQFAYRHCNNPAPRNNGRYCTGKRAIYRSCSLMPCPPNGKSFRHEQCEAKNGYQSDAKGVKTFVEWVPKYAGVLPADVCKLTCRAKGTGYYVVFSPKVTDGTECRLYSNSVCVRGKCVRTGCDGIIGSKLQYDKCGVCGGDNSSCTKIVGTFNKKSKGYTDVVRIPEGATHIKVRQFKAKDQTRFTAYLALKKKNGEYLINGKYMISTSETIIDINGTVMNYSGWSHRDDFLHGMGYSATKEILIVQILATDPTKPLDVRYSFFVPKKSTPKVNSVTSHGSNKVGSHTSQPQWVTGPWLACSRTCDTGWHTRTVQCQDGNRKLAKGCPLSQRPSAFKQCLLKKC
T2 sequence (P78536 whole entry, looked up, change not shown): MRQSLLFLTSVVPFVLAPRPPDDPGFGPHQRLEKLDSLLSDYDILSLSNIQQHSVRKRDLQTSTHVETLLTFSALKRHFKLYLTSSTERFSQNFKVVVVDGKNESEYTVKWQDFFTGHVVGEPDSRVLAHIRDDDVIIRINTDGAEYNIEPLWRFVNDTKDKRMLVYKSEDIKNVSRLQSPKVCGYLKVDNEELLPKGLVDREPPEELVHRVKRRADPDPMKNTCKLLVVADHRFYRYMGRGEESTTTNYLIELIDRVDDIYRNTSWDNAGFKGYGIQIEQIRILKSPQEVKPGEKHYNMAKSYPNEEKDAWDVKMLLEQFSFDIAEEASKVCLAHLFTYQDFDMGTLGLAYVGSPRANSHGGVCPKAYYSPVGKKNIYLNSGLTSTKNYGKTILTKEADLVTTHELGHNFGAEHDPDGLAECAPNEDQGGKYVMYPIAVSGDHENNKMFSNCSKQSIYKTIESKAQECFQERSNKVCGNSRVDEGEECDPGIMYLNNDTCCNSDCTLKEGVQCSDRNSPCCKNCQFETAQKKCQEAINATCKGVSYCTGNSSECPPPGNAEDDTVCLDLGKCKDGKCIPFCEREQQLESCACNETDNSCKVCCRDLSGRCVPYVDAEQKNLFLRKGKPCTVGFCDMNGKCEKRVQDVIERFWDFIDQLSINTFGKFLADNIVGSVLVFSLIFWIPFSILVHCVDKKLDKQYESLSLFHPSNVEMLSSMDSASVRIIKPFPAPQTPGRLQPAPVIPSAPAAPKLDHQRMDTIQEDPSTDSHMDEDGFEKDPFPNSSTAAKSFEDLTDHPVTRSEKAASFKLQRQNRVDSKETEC

On to `O=C1NC(=O)C(CCC(=O)N2CCN(c3ccc4cnccc4c3)CC2)(c2ccccc2)N1` (centres unmarked) [compound 14, 5-[3-[4-(6-isoquinolyl)piperazin-1-yl]-3-oxo-propyl]-5-phenyl-imidazolidine-2,4-dione], for which the pIC50 at rnADAMTS-5 (1-564-6H) is 6.11; at human ADAMTS-5 [1], 6.05; on human TACE [2] it was under 5.40; on human MMP13 [3], 6.44.

As for `Cc1ccc(Cl)cc1N1CCN(C(=O)CCC2(C)NC(=O)NC2=O)CC1` (centres unmarked) [compound 16, 5-[3-[4-(5-chloro-2-methyl-phenyl)piperazin-1-yl]-3-oxo-propyl]-5-methyl-imidazolidine-2,4-dione], the pIC50 on rnADAMTS-5 (1-564-6H) is 6.48; at human ADAMTS-5 [1], 6.52; on human TACE [2], 6.34; at human MMP13 [3], under 4.70.

As to `Cc1c(Cl)cccc1N1CCN(C(=O)CCC2(C)NC(=O)NC2=O)CC1` (centres unmarked) [compound 18, 5-[3-[4-(3-chloro-2-methyl-phenyl)piperazin-1-yl]-3-oxo-propyl]-5-methyl-imidazolidine-2,4-dione], the pIC50 is 6.03 on rnADAMTS-5 (1-564-6H), 6.17 at human ADAMTS-5 [1], under 5.40 at human TACE [2] and under 4.70 at human MMP13 [3].

As to `O=C1NC(=O)C(CCC(=O)N2CCN(c3ccccc3Cl)CC2)(c2ccccc2)N1` (centres unmarked) [compound 20, 5-[3-[4-(2-chlorophenyl)piperazin-1-yl]-3-oxo-propyl]-5-phenyl-imidazolidine-2,4-dione], the pIC50 on rnADAMTS-5 (1-564-6H) was 5.90; at human ADAMTS-5 [1], 5.89; on human TACE [2], under 5.40; at human MMP13 [3], under 4.70.

As for `Cc1c(Cl)cccc1N1CCN(C(=O)CCC2(c3ccccc3)NC(=O)NC2=O)CC1` (centres unmarked) [compound 21, 5-[3-[4-(3-chloro-2-methyl-phenyl)piperazin-1-yl]-3-oxo-propyl]-5-phenyl-imidazolidine-2,4-dione], the pIC50 on rnADAMTS-5 (1-564-6H) is 6.79; on human ADAMTS-5 [1], 6.78; at human TACE [2], 5.69; on human MMP13 [3], under 4.70.

Take `C[C@H]1CN(C(=O)CCC2(C)NC(=O)NC2=O)CCN1c1ccc(Cl)c(F)c1` (stereo partly drawn) [compound 164, 5-[3-[(3S)-4-(4-chloro-3-fluoro-phenyl)-3-methyl-piperazin-1-yl]-3-oxo-propyl]-5-methyl-imidazolidine-2,4-dione]: the pIC50 on human ADAMTS-5 [4] is 6.63; against human TACE [5] it was under 4.70; against human MMP13 [6] it was under 4.70.

As for `C[C@H]1CN(C(=O)CCC2(C3CC3)NC(=O)NC2=O)CCN1c1cccc2c1cnn2C` (stereo partly drawn) [compound 333, 5-cyclopropyl-5-[3-[(3S)-3-methyl-4-(1-methylindazol-4-yl)piperazin-1-yl]-3-oxo-propyl]imidazolidine-2,4-dione], the pIC50 at human ADAMTS-5 [4] is 5.51; against human TACE [5], under 4.70.

Consider `C[C@H]1CN(C(=O)CCC2(c3ccc(C(F)(F)F)nc3)NC(=O)NC2=O)CCN1c1cc(F)cc(F)c1` (stereo partly drawn) [compound 335, 5-[3-[(3S)-4-(3,5-difluorophenyl)-3-methyl-piperazin-1-yl]-3-oxo-propyl]-5-[6-(trifluoromethyl)-3-pyridyl]imidazolidine-2,4-dione], for which the pIC50 against human ADAMTS-5 [4] is 7.11; against human TACE [5], under 5.40.

Consider `COCC1(CC(C)C(=O)N2CCN(c3cncc(F)c3)[C@@H](C)C2)NC(=O)NC1=O` (stereo partly drawn) [compound 364, 5-[3-[(3S)-4-(5-fluoro-3-pyridyl)-3-methyl-piperazin-1-yl]-2-methyl-3-oxo-propyl]-5-(methoxymethyl)imidazolidine-2,4-dione], for which the pIC50 was 7.04 on human ADAMTS-5 [4] and under 4.70 against human TACE [5].

The record behind these values is US9926281B2 (priority 2014, dated 2018).
